Measurements published in patent publication US7511065B2, “Mixed lineage kinase modulators” (Eli Lilly and Company, priority 2002, dated 2009).
pIC50: −log10 of the molar value.

Each compound was assayed against T1, MLK-7 (Homo sapiens, UniProt Q9NYL2) (assay: In vitro assay of purified MLK-7 kinase activity (33P transfer from ATP to myelin basic protein)). Settings: recombinant GST-tagged MLK-7 at 1 nm, 30 uM ATP, 5 uM MBP substrate, 2 hours room temperature; read-out: MLK7 IC50.
T1 construct: GST; His tag; made in house; host or cells: Sf9 insect cells (baculovirus, pVL1392)
T1 sequence (Q9NYL2 1-455 isoform Q9NYL2-2): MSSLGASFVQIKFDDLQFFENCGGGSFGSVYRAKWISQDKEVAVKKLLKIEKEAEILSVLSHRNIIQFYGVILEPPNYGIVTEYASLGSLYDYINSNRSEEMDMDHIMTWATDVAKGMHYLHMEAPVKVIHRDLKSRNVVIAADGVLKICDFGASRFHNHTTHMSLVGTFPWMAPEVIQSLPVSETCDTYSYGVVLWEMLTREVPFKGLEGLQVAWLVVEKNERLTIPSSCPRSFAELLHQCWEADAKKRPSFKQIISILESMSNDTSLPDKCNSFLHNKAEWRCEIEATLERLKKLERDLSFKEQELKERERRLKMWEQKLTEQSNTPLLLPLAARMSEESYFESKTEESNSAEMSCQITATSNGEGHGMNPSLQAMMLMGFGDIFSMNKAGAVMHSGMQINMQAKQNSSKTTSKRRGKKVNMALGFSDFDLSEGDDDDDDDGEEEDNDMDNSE
Type: biochemical
Text: In Vitro Assay of Purified Mixed Lineage Kinase 7 (MLK-7) Activity:
Briefly, recombinant glutathione-s-transferase (GST) tagged MLK-7 is expressed in Sf9 cells using a recombinant baculovirus created using baculovirus transfer vector pVL1392 modified to contain a GST and histidine tag. The recombinant protein is purified over a glutathione column and subsequently used for in vitro kinase assays with myelin basic protein (MBP) as the substrate for phosphorylation. The in vitro kinase reaction is run with recombinant MLK-7 at 1 nm and various concentrations of test compound in a reaction mixture containing 2 mM DTT, 30 uM ATP, 5 mM MgCl2, 5 uM MBP, 4% DMSO, 5 uCi 33P in 44 mM HEPES, (pH 7.4). The reaction is carried out for 2 hours at room temperature and then stopped by the addition of phosphoric acid to 5.5%. The phosphorylated MBP is collected on a filter and radioactivity associated with the membrane measured using a scintillation counter. Inhibitors are identified by the ability to reduce the transfer of radioactive phosphate from ATP to MBP compared to controls run without test compound.
IC50 values, defined as the concentration of test compound required to decrease the transfer of radioactive phosphate from ATP to MBP by 50%, are then determined. Ki values (which refers to the dissociation constant of an enzyme-antagonist complex and serves as an index of ligand binding) for each respective test compound can also be calculated by application of the Cheng-Prusoff equation as described in Cheng et al., Relationship Between The Inhibition Constant (Ki) and The Concentration of Inhibitor Which Causes 50% Inhibition (IC50) of an Enzymatic Reaction, Biochem. Pharmacol., 22: […]; (1973).
Representative compounds of the present invention have an IC50 in the MLK-7 kinase assay of ≦10,000 nM Table I (see infra.) provides IC50 data from the afore mentioned MLK-7 kinase assay for a representative sample of the exemplified compounds of the present invention.
For `c1ccc(-c2nn3c(c2-c2ccnc4cc(-c5ccc6[nH]ccc6c5)ccc24)CCC3)nc1` [Example 27, 7-(1H-Indol-5-yl)-4-(2-pyridin-2-yl-5,6-dihydro-4H-pyrrolo[1,2-b]pyrazol-3-yl)quinoline Ditrifluoroacetic Acid], the pIC50 was ≥ 7.00. With `CC(=O)c1ccc(-c2ccc3c(-c4c(-c5ccccn5)nn5c4CCC5)ccnc3c2)cc1` [Example 28, 1-{4-[4-(2-Pyridin-2-yl-5,6-dihydro-4H-pyrrolo[1,2-b]pyrazol-3-yl)quinolin-7-yl]phenyl}ethanone Trifluoroacetic Acid] the pIC50 was ≥ 7.00. With `O=C(O)CCc1ccc(-c2ccc3c(-c4c(-c5ccccn5)nn5c4CCC5)ccnc3c2)cc1` [Example 30, 3-{4-[4-(2-Pyridin-2-yl-5,6-dihydro-4H-pyrrolo[1,2-b]pyrazol-3-yl)quinolin-7-yl]phenyl}propionic Acid Trifluoroacetic Acid] the pIC50 was ≥ 7.00. In the case of `COc1ccc(-c2ccc3c(-c4c(-c5ccccn5)nn5c4CCC5)ccnc3c2)cc1C` [Example 32, 7-(4-Methoxy-3-methylphenyl)-4-(2-Pyridin-2-yl-5,6-dihydro-4H-pyrrolo[1,2-b]pyrazol-3-yl)quinoline Trifluoroacetic Acid], the pIC50 was ≥ 6.00. In the case of `Cc1ccc(-c2ccc3c(-c4c(-c5ccccn5)nn5c4CCC5)ccnc3c2)cc1N` [Example 33, 2-Methyl-5-[4-(2-Pyridin-2-yl-5,6-dihydro-4H-pyrrolo[1,2-b]pyrazol-3-yl)quinolin-7-yl]phenylamine Ditrifluoroacetic Acid], the pIC50 was ≥ 7.00. With `c1ccc(-c2nn3c(c2-c2ccnc4cc(-c5ccncc5)ccc24)CCC3)nc1` [Example 34, 7-Pyridin-4-yl-4-(2-Pyridin-2-yl-5,6-dihydro-4H-pyrrolo[1,2-b]pyrazol-3-yl)quinoline Ditrifluoroacetic Acid] the pIC50 was ≥ 7.00. In the case of `c1ccc(-c2nn3c(c2-c2ccnc4cc(-c5cccnc5)ccc24)CCC3)nc1` [Example 35, 7-Pyridin-3-yl-4-(2-Pyridin-2-yl-5,6-dihydro-4H-pyrrolo[1,2-b]pyrazol-3-yl)quinoline Ditrifluoroacetic Acid], the pIC50 was ≥ 7.00. With `O=[N+]([O-])c1ccccc1-c1ccc2c(-c3c(-c4ccccn4)nn4c3CCC4)ccnc2c1` [Example 36, 7-(2-Nitrophenyl)-4-(2-pyridin-2-yl-5,6-dihydro-4H-pyrrolo[1,2-b]pyrazol-3-yl)quinoline Trifluoroacetic Acid] the pIC50 was ≥ 6.00. In the case of `CC(=O)Nc1cccc(-c2ccc3c(-c4c(-c5ccccn5)nn5c4CCC5)ccnc3c2)c1` [Example 37, N-{3-[4-(2-pyridin-2-yl-5,6-dihydro-4H-pyrrolo[1,2-b]pyrazol-3-yl)quinolin-7-yl]phenyl}-acetamide Trifluoroacetic Acid], the pIC50 was ≥ 7.00. In the case of `C[S+]([O-])c1ccc(-c2ccc3c(-c4c(-c5ccccn5)nn5c4CCC5)ccnc3c2)cc1` (stereo not drawn) [Example 38, 7-(4-Methanesulfinylphenyl)-4-(2-pyridin-2-yl-5,6-dihydro-4H-pyrrolo[1,2-b]pyrazol-3-yl)quinoline Trifluoroacetic Acid], the pIC50 was ≥ 7.00. `c1ccc(-c2nn3c(c2-c2ccnc4cc(-c5ccc6c(c5)OCO6)ccc24)CCC3)nc1` [Example 40, 7-Benzo[1,3]dioxol-5-yl-4-(2-pyridin-2-yl-5,6-dihydro-4H-pyrrolo[1,2-b]pyrazol-3-yl)quinoline Trifluoroacetic Acid] was tested, and the pIC50 was ≥ 7.00. With `O=C(O)c1ccc(-c2ccc3c(-c4c(-c5ccccn5)nn5c4CCC5)ccnc3c2)cc1` [Example 41, 4-[4-(2-pyridin-2-yl-5,6-dihydro-4H-pyrrolo[1,2-b]pyrazol-3-yl)quinolin-7-yl]benzoic Acid Trifluoroacetic Acid] the pIC50 was ≥ 7.00. In the case of `FC(F)(F)c1cc(-c2ccc3c(-c4c(-c5ccccn5)nn5c4CCC5)ccnc3c2)cc(C(F)(F)F)c1` [Example 42, 7-(3,5-Bis-trifluromethylphenyl)-4-(2-pyridin-2-yl-5,6-dihydro-4H-pyrrolo[1,2-b]pyrazol-3-yl)quinoline Trifluoroacetic Acid], the pIC50 was ≥ 5.00. In the case of `O=C(O)c1cccc(-c2ccc3c(-c4c(-c5ccccn5)nn5c4CCC5)ccnc3c2)c1` [Example 43, 3-[4-(2-pyridin-2-yl-5,6-dihydro-4H-pyrrolo[1,2-b]pyrazol-3-yl)quinolin-7-yl]benzoic Acid Trifluoroacetic Acid], the pIC50 was ≥ 7.00. In the case of `O=C(O)c1ccccc1-c1ccc2c(-c3c(-c4ccccn4)nn4c3CCC4)ccnc2c1` [Example 44, 2-[4-(2-pyridin-2-yl-5,6-dihydro-4H-pyrrolo[1,2-b]pyrazol-3-yl)quinolin-7-yl]benzoic Acid Trifluoroacetic Acid], the pIC50 was ≥ 5.00. In the case of `CC(C)Cc1ccc(-c2ccc3c(-c4c(-c5ccccn5)nn5c4CCC5)ccnc3c2)cc1` [Example 45, 7-(4-Isobutylphenyl)-4-(2-pyridin-2-yl-5,6-dihydro-4H-pyrrolo[1,2-b]pyrazol-3-yl)quinoline Trifluoroacetic Acid], the pIC50 was ≥ 6.00. With `O=C(O)COc1ccc(-c2ccc3c(-c4c(-c5ccccn5)nn5c4CCC5)ccnc3c2)cc1` [Example 46, {4-[4-(2-pyridin-2-yl-5,6-dihydro-4H-pyrrolo[1,2-b]pyrazol-3-yl)quinolin-7-yl]phenoxy}acetic Acid Trifluoroacetic Acid] the pIC50 was ≥ 7.00. With `c1ccc(-c2nn3c(c2-c2ccnc4cc(-c5cc6ccccc6s5)ccc24)CCC3)nc1` [Example 47, 7-Benzo[b]thiophen-2-yl-4-(2-pyridin-2-yl-5,6-dihydro-4H-pyrrolo[1,2-b]pyrazol-3-yl)quinoline Trifluoroacetic Acid] the pIC50 was ≥ 6.00. With `c1ccc(-c2nn3c(c2-c2ccnc4cc(-c5cc6ccccc6o5)ccc24)CCC3)nc1` [Example 48, 7-Benzofuran-2-yl-4-(2-pyridin-2-yl-5,6-dihydro-4H-pyrrolo[1,2-b]pyrazol-3-yl)quinoline Trifluoroacetic Acid] the pIC50 was ≥ 7.00. For `c1ccc(-c2nn3c(c2-c2ccnc4cc(-c5ccsc5)ccc24)CCC3)nc1` [Example 50, 4-(2-pyridin-2-yl-5,6-dihydro-4H-pyrrolo[1,2-b]pyrazol-3-yl)-7-thiophen-3-yl-quinoline Trifluoroacetic Acid], the pIC50 was ≥ 7.00. In the case of `c1ccc(-c2nn3c(c2-c2ccnc4cc(-c5ccoc5)ccc24)CCC3)nc1` [Example 51, 7-Furan-3-yl-4-(2-pyridin-2-yl-5,6-dihydro-4H-pyrrolo[1,2-b]pyrazol-3-yl)quinoline Trifluoroacetic Acid], the pIC50 was ≥ 7.00. For `c1ccc(-c2nn3c(c2-c2ccnc4cc(-c5ccc(C6CCCCC6)cc5)ccc24)CCC3)nc1` [Example 53, 7-(4-Cyclohexyl-phenyl)-4-(2-pyridin-2-yl-5,6-dihydro-4H-pyrrolo[1,2-b]pyrazol-3-yl)-quinoline Trifluoroacetic Acid], the pIC50 was ≥ 5.00. In the case of `Clc1ccc(-c2ccc3c(-c4c(-c5ccccn5)nn5c4CCC5)ccnc3c2)cc1Cl` [Example 55, 7-(3,4-Dichlorophenyl)-4-(2-pyridin-2-yl-5,6-dihydro-4H-pyrrolo[1,2-b]pyrazol-3-yl)-quinoline], the pIC50 was ≥ 6.00. For `Cc1cccc(-c2nn3c(c2-c2ccnc4cc(-c5ccc(C(=O)O)cc5)ccc24)CCC3)n1` [Example 57, 4-{4-[2-(6-Methyl-pyridin-2-yl)-5,6-dihydro-4H-pyrrolo[1,2-b]pyrazol-3-yl]-quinolin-7-yl}-benzoic acid], the pIC50 was ≥ 7.00.
